Results from patent US5976848A, “Method of identifying potential fungicides using dihydroorotate dehydrogenase inhibition assay” (priority 1992, dated 1999).
Values after ≈ are worked out from the molar mass of the structure shown. “Also recorded” adds a separate entry of the source.

Experiments:
[1] = test system: Botrytis cinerea; assay: greenhouse tests against Botrytis cinerea; format: in vivo
[2] = test system: Cephalosiorium; assay: sensitivity of Cephalosporium to CCFQ; format: cell-based
[3] = test system: Neurospora; assay: sensitivity of Neurospora to CCFQ; format: cell-based
[4] = test system: Aspergillus nidulans; assay: growth inhibition of Aspergillus nidulans; format: cell-based
[5] = test system: Penicillium digitalum; assay: greenhouse tests against Penicillium digitalum; format: in vivo
[6] = test system: DHOD; assay: DHOD in vitro tests; format: biochemical
[7] = test system: Aspergillus nidulans; assay: physiological and biochemical responses of Aspergillus nidulans treated with CCFQ; format: cell-based
Excerpt: The physiological and biochemical responses caused by the experimental fungicide CCFQ are not characteristic of known modes of action. […] It causes an unusual effect on synthesis of nucleic acids in that incorporation of radiolabelled precursors is stimulated by treatment with CCFQ. […] Some media supplements overcame growth inhibition by CCFQ. […] All these observations are consistent with the primary target of CCFQ being an electron-transferring enzyme in the pyrimidine biosynthetic pathway. […] This is a novel fungicidal mode of action, and its discovery opens the opportunity to detect novel chemical compounds that attack the same target.

[8] = molecular target: T1, DHOD produced by mutant Aspergillus nidulans strains resistant to CCFQ (Aspergillus nidulans, UniProt G5EB61); assay: inhibition of DHOD produced by CCFQ-resistant mutant strains; format: biochemical; conditions: DHOD from resistant mutant A. nidulans
T1 construct: V200E (preferred, MNNG, FGSC612) or A115V (EMS, FGSC610)
T1 sequence (G5EB61 1-520): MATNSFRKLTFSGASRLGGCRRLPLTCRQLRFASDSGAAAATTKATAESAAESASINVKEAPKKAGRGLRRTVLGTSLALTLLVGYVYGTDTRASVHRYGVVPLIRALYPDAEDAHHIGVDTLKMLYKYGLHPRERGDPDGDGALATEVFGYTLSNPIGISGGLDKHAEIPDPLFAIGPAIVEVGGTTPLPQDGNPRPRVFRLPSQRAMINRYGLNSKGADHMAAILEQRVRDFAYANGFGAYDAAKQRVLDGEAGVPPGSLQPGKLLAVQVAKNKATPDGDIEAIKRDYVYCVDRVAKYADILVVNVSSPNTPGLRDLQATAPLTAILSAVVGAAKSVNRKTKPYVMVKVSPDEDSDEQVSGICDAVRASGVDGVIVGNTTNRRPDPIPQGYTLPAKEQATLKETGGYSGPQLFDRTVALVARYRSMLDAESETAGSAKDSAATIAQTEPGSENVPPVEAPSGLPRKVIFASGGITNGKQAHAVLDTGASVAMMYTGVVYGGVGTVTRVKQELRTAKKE

[9] = treatment of Aspergillus nidulans

Fc1ccc(Oc2ccnc3c(Cl)cccc23)c(Cl)c1 [CCFQ, 8-chloro-4-(2-chloro-4-fluorophenoxy)quinoline]
inhibition of Botrytis cinerea ([1]; 50 μg/ml, greenhouse tests): completely inhibits
inhibition of growth of Botrytis cinerea ([1]; no concentration stated): completely inhibits
sensitivity to CCFQ / growth inhibition [2]: inhibits the growth; also recorded: sensitive
sensitivity to CCFQ / growth inhibition [3]: inhibits the growth; also recorded: sensitive
IC50 ([4]; against Aspergillus nidulans, read-out: IC50 (concentration that inhibits growth by 50%)): 0.15 µg/mL (≈ 0.487 µM)
inhibition of growth of Aspergillus ([4]; no concentration stated): inhibits the growth
inhibition of Penicillium digitalum ([5]; 50 μg/ml, greenhouse tests): completely inhibits
inhibition of growth of Penicillium digitalum ([5]; no concentration stated): completely inhibits
sensitivity of DHOD to CCFQ [6]: extremely sensitive
reversal of growth inhibition by media supplements ([7]; combination of uracil and a free radical scavenger such as α-tocopherol): complete reversal
change in amino acid content [7, 9]: no significant changes
change in lipid composition [7, 9]: no significant changes
change in protein accumulation [7, 9]: no significant changes
change in respiration [7, 9]: no significant changes
effect on cell wall synthesis [7, 9]: perturbs cell wall synthesis in a non-specific manner
incorporation of radiolabelled precursors (synthesis of nucleic acids) [7, 9]: stimulated
inhibition of DHOD of CCFQ-resistant mutant strains [8]: resistant to inhibition
